These results are taken from ChEMBL document CHEMBL5518160, “Progress in the development of TRPV1 small-molecule antagonists: Novel Strategies for pain management” (Eur J Med Chem, 2023).

For assay [1], the target named is T1, Transient receptor potential cation channel subfamily V member 1 (Homo sapiens, UniProt Q8NER1). As to the kind of experiment: Antagonist activity at human TRPV1 expressed in HEK293 cells assessed as inhibition of capsaicin-induced Ca2+ influx by fluorescence based assay. The class given is cell-based.
For another assay, the species on record is Mus musculus. Briefly: Antipruritic effect in mouse assessed as reduction in histamine-induced itching duration relative to control. The class given is functional. Set-up: scale not given: the % may be the effect or the level left.
Assay [2] concerns the target T1, Transient receptor potential cation channel subfamily V member 1. As to the kind of experiment: Antagonist activity at human TRPV1.
Assay [3] shares this target. Briefly: Binding affinity to human TRPV1 assessed as inhibition constant.
Assay [4] has the same target. As to the kind of experiment: Antagonist activity at human TRPV1 assessed as inhibition of capsaicin-induced increase in intracellular Ca2+ level. The class given is cell-based.
Assay [5] deals with T2, Prostaglandin G/H synthase 2 (Homo sapiens, UniProt P35354).
T2 sequence (P35354 whole entry): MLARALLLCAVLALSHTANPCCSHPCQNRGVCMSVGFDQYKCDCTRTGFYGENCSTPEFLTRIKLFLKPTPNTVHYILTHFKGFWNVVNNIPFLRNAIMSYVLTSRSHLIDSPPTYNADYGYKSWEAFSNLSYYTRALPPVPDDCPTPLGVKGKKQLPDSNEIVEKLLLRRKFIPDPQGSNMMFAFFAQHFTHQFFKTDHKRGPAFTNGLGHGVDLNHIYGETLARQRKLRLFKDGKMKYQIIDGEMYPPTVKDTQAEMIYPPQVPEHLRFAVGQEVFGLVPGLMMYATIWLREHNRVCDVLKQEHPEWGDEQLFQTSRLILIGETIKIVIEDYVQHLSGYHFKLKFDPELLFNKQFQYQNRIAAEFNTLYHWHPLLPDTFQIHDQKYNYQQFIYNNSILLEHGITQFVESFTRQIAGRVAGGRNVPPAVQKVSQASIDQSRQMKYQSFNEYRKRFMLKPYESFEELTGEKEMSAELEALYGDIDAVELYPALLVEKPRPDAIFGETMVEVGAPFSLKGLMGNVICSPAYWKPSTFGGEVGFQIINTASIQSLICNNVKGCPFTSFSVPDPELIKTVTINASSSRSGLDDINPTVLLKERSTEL
As to the kind of experiment: Inhibition of COX-2 (unknown origin).

Assay [6] has as its target T3, Transient receptor potential cation channel subfamily V member 1 (Rattus norvegicus, UniProt O35433). Briefly: Inhibition of rat TRPV1 assessed as inhibition of capsaicin-induced increase in intracellular Ca2+ level. It is filed as cell-based.
In assay [7] the target is T1, Transient receptor potential cation channel subfamily V member 1. Briefly: Antagonist activity at human TRPV1 assessed as inhibition of pH-induced increase in intracellular Ca2+ level. The class given is cell-based.
The target is the same in assay [8]. As to the kind of experiment: Antagonist activity at human TRPV1 expressed in HEK293 cells assessed as inhibition of NADA-induced increase in intracellular Ca2+ level incubated for 2 mins by scintillation counter analysis. The class given is cell-based.
Assay [9] has the same target. Briefly: Antagonist activity at human TRPV1 expressed in HEK293 cells assessed as inhibition of capsaicin-induced increase in intracellular Ca2+ level incubated for 2 mins by scintillation counter analysis. The class given is cell-based.
Assay [10] has as its target T3, Transient receptor potential cation channel subfamily V member 1. As to the kind of experiment: Antagonist activity at rat TRPV1 expressed in CHO cells assessed as inhibition of pH-induced increase in intracellular Ca2+ level by fluorescence based analysis. It is filed as cell-based.
Assay [11] can be described thus: Antagonist activity at Xenopus oocytes TRPV1 assessed as inhibition of capsaicin-induced increase in intracellular Ca2+ level. It is filed as cell-based. To be noted: Xenopus laevis.
In assay [12] the target is T1, Transient receptor potential cation channel subfamily V member 1. As to the kind of experiment: Antagonist activity at capsaicin-induced human TRPV1 activation.
For assay [13] the target is unchanged. As to the kind of experiment: Antagonist activity at human TRPV1 assessed as inhibition of AITC-induced increase in intracellular Ca2+ level. The class given is cell-based.
Assay [14] shares this target. As to the kind of experiment: Antagonist activity at human TRPV1 expressed in HEK293 cells assessed as inhibition of capsaicin-induced increase in intracellular Ca2+ level by FLIPR-based Ca2+ assay. It is filed as cell-based.
In assay [15] the target is T3, Transient receptor potential cation channel subfamily V member 1. Briefly: Antagonist activity at rat TRPV1 assessed as inhibition of pH-induced increase in intracellular Ca2+ level. It is filed as cell-based.

T3 sequence (O35433 whole entry): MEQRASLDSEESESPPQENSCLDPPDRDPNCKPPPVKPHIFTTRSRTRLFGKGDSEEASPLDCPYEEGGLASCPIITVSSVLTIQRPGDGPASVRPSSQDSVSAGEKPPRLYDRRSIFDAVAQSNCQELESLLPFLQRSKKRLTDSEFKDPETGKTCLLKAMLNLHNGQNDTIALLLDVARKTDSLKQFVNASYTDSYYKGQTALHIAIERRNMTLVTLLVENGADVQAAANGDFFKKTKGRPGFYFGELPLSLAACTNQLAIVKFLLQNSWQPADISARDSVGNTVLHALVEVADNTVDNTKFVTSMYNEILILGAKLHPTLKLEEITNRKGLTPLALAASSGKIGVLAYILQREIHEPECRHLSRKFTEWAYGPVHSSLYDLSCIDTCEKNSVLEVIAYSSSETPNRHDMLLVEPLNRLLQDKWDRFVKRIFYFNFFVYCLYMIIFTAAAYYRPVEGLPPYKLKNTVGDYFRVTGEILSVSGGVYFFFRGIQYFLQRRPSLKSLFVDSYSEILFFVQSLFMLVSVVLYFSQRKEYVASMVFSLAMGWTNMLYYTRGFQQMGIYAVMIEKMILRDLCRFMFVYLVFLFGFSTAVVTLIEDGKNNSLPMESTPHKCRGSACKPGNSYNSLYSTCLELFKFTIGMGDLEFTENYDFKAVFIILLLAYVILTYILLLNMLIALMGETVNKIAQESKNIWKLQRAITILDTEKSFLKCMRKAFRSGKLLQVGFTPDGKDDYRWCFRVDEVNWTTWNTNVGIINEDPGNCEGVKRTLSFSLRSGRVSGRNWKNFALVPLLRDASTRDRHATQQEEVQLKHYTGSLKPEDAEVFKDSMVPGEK
T1 sequence (Q8NER1 whole entry): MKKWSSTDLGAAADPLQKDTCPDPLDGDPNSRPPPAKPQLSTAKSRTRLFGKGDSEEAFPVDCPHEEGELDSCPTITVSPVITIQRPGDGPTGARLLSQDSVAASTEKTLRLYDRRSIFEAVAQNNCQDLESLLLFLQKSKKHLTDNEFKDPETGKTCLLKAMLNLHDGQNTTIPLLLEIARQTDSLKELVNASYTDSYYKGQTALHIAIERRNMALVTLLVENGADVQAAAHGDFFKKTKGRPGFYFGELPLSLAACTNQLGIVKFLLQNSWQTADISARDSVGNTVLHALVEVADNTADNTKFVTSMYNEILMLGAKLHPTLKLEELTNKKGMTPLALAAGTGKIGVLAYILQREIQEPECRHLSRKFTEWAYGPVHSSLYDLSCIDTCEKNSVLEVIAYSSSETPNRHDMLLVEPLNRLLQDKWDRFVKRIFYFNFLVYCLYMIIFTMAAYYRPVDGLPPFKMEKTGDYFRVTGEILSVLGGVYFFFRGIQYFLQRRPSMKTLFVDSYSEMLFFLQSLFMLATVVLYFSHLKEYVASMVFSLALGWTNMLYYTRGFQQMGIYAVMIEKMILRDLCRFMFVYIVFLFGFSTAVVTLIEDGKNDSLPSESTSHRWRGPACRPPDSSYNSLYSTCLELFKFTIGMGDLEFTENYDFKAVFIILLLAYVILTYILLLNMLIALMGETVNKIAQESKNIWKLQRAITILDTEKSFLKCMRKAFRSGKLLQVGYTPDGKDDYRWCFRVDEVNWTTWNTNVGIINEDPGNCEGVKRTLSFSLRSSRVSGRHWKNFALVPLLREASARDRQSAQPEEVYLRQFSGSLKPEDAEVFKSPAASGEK

For the compound `C=Cc1cc([C@@H](C)NC(=O)/C(C)=C/c2ccc(C(C)(C)C)cc2)ccc1NS(C)(=O)=O`, the IC50 in assay [1] was 22 nM.

For `CCCCCCCCCCCC(=O)OCC(=O)NCc1cc(OC)c(O)cc1I`, the Activity in the assay filed under Mus musculus is listed as less than 1%.

`CN(C)C1(Cc2ccccc2)CCN(c2cc(C(F)(F)F)ccc2CNC(=O)Nc2cccc3ncccc23)CC1` came in with a 50% inhibitory concentration (IC50) in [2] of 10.8 nM. Also, the inhibitory constant (Ki) in [3] was determined as 32 nM.

As for `CC1CCN(c2nc(C(F)(F)F)ccc2CNC(=O)Cc2c(F)cccc2Cl)CC1`, in assay [4], the half-inhibitory concentration (IC50) was 2.6 nM.

Turning to `COc1cc(C(=O)NS(=O)(=O)c2ccc(-n3nc(C(F)(F)F)cc3-c3ccc(C)cc3)cc2)ccc1O`, in assay [5], the half-inhibitory concentration (IC50) was 11 nM.

On to `COc1cc(/C=C/C(=O)NS(=O)(=O)c2ccc(-n3nc(C(F)(F)F)cc3-c3ccc(C)cc3)cc2)ccc1O`, for which the IC50 in assay [6] was found to be 140 nM; in assay [5], 23 nM.

For `O=C(Nc1ccc(Br)cc1)[C@@H]1CCCN1C(=O)Nc1cccc2cnccc12`, the half-inhibitory concentration (IC50) is 84 nM in assay [4] and 313 nM in [7].

As to `CCC1(CC)CC(NC(=O)Nc2cccc3c(C)nccc23)c2cc(F)ccc2O1` (stereo unspecified), the results for the IC50 in assay [8] and in assay [9] were 7 nM and 19 nM, respectively.

`O=C1/C(=N\Nc2ccccc2)C(C(F)(F)C(F)(F)F)=NN1c1ccccc1`: the IC50 in [10] is 140 nM.

As to `C[C@H]1O[C@H](O[C@H]2[C@H](Oc3cc(O)c4c(c3)O[C@H](c3ccc(O)cc3)CC4=O)O[C@H](CO)[C@@H](O)[C@@H]2O)[C@H](O)[C@@H](O)[C@H]1O`, in [11], the concentration for half-maximal inhibition (IC50) came out at 33300 nM.

With `Cc1cc(C)nc(NC(=O)N2CCN(Cc3ccccc3N3CCCC3)CC2)c1`, in assay [12], the midpoint of inhibition, the IC50, lay at 9.8 nM.

For `O=C(C(c1ccccc1)N1C(=O)CCC1=O)N1CCN(c2cccc(C(F)(F)F)c2)CC1` (stereo unspecified), the 50% inhibitory concentration (IC50) in assay [4] was 45000 nM.

On to `COc1cc(CNC(=O)COC(=O)/C=C(\C)CC=C(C)C)c(I)cc1O`, for which the 50% inhibitory concentration (IC50) in [4] amounted to 90 nM.

On to `O=C1C[C@@H](c2ccc(O[C@@H]3O[C@H](CO)[C@@H](O)[C@H](O)[C@H]3O)cc2)Oc2cc(O)ccc21` [LIQUIRITIN], for which the half-inhibitory concentration (IC50) stood at 9800 nM in assay [4] and 16200 nM in assay [13].

For `O=C(Nc1ccccc1Br)N[C@@H]1CCN(c2ccc(C(F)(F)F)cn2)C1` [SB-705498], the values for the IC50 in [14] and in assay [15] were 3 nM and 6 nM, respectively.
